Data set [1] can be described thus: Phase II clinical trial with dnaJP1 in RA: safety, adverse events. The data set is classed as in vivo, human. The following applies: 25 mg per os daily, 168 days. Here is the method: A double-blinded, placebo-controlled ITT trial was designed to test for the first time if immune tolerization to dnaJp1 observed in the trial translated into clinical amelioration of the disease. dnaJP1 was tested as a first line inducer of remission in patients with early RA.

A further data set has as its system T cells. To be noted: human, in vivo.

Molecules are shown by their SMILES. Where a SMILES comes first, the peptide text is derived from it.

Turning to `C[C@H](NC(=O)[C@H](C)NC(=O)[C@H](Cc1c[nH]cn1)NC(=O)CNC(=O)[C@H](Cc1ccc(O)cc1)NC(=O)[C@H](CCC(N)=O)NC(=O)[C@H](CC(=O)O)NC(=O)[C@H](Cc1ccc(O)cc1)NC(=O)[C@H](C)NC(=O)[C@H](C)NC(=O)[C@H](CCCNC(=N)N)NC(=O)[C@H](CCCCN)NC(=O)[C@@H](N)CCC(N)=O)C(=O)N[C@@H](Cc1ccccc1)C(=O)N[C@@H](CCC(=O)O)C(=O)O` [dnaJP1, QKRAAYDQYGHAAFE] (H-QKRAAYDQYGHAAFE-OH), in data set [1], the safety and tolerability result was “safe and well tolerated”. Further, in the data set with T cells, the “ability of T cells to respond to the recall antigen Tetanus Toxoid” value is “remained intact”.

The values above are taken from patent US9707284B2, “Formulations of peptides and chloroquines for the treatment of pathogenic immune responses in immune mediated diseases” (The Regents of the University of California, priority 2006, dated 2017).
